Measured values taken from patent publication US12233073B2, “Skin care formulations and skin cancer treatment” (Regents of the University of Minnesota, priority 2017, dated 2025).
“And” between values parts separate entries of the source, which are not always exact repeats. Equal values may be shown once. Read-outs that look alike come from different tables or passages of the source.

Experiments:
[1] = tested on: SSL-exposed skin of SKH-1 hairless mouse; assay: Acute SSL-induced skin inflammation in SKH-1 hairless mouse skin (H&E, p-PRPK staining and blot); assay type: in vivo; conditions: for sUV-induced increase in PRPK expression / sUV-induced increase in epidermal thickness: topical in cream carrier, 24 h after SSL irradiation, vs untreated sUV-exposed group; for phosphorylation of PRPK in sUV-treated mouse skin / sUV-induced phosphorylation on increasing the concentration: topical treatment; for sUV-induced phosphorylation on increasing the concentration: higher concentration
Procedure: PRPK phosphorylation induced by sUV is a potent stimulator of skin inflammation. Inflammation contributes to tumor development and progression and metastasis often arises in acute and chronic inflammatory skin conditions and increased epidermal thickness is a sign of sUV-induced inflammatory responses. To examine the effect of rocuronium bromide on SSL-induced acute skin inflammation, H&E (haemotoxylin and eosin) staining on SSL-exposed skin tissues of SKH-1 hairless mouse skin was performed. FIG. 15 is a photographic array comparing epidermal thickness in mouse skin samples exposed to one or more of SSL, rocuronium bromide, and betamethasone 17-valerate. FIG. 16 is a photographic array comparing expression of phosphorylated PRPK in immunologically stained mouse skin samples exposed to one or more of SSL, rocuronium bromide, and […]. A cream carrier was used to apply the rocuronium bromide or betamethasone 17-valerate. […] In contrast, application of rocuronium bromide or betamethasone-17-valerate attenuated sUV-induced increases in epidermal thickness and PRPK expression compared to the untreated sUV-exposed group (FIGS. 15 and 16).
FIG. 17 is a photograph illustrating a chromatographic plate comparing the phosphorylation of PRPK in mouse skin tissue samples treated or not treated with rocuronium bromide and exposed or not exposed to SSL. FIG. 18 is a photograph illustrating a chromatographic plate comparing the phosphorylation of PRPK in mouse skin tissue samples treated or not treated with betamethasone 17-valerate and exposed or not exposed to SSL. Topical treatment with rocuronium bromide (FIG. 17) or betamethasone-17-valerate (FIG. 18) decreased phosphorylation of PRPK in sUV-treated mouse skin.

PRPK = assay: SSL-induced phosphorylation of PRPK in JB6 cells; assay type: cell-based; conditions: increasing concentrations added to the medium
Procedure: The effect of the binding of rocuronium bromide to PRPK on SSL-induced phosphorylation of PRPK was evaluated. FIG. 13C is a photograph illustrating a chromatographic plate showing the reduction in SSL-induced phosphorylation of PRPK in JB6 cells with increasing concentrations of rocuronium bromide, added into the medium. Thus, rocuronium bromide inhibited sUVL-induced phosphorylation of PRPK.
The effect of the binding of betamethasone 17-valerate to PRPK on SSL-induced phosphorylation of PRPK was evaluated. FIG. 14C is a photograph illustrating a chromatographic plate showing the reduction in SSL-induced phosphorylation of PRPK in JB6 cells with an increasing concentration of betamethasone 17-valerate, added to the medium. Thus, betamethasone 17-valerate inhibited SSL-induced phosphorylation of PRPK.

[2] = Pharmacokinetics: plasma levels after topical RB cream; assay type: in vivo, SKH1-Hrhr hairless mice; conditions: for ng/ml RB (plasma, single mouse): listed as RB; for concentration at 24 h: 24 h post-dose
Procedure: To assess pharmacokinetics, RB cream (1.0 mg RB in 100 μl cream) was topically applied to the dorsum of SKH1-Hrhr hairless mice (Charles River), and plasma sample were taken at 0, 0.25, 0.5, 1, 2, 6, 24 and 48 hours post-dose (3 mice/time point).

IFN-γ, IL-12 and PGE2 = assay: Immune system markers (IFN-γ, IL-12, PGE2, T-cell markers) in the SSL-induced prevention models; assay type: in vivo, mouse; conditions: for T cell infiltrates in mouse skin: CD3, CD4 markers; for production of IFN-γ in mouse serum: ELISA; for production of IFN-γ in mouse serum / production of IL-12 in mouse serum / production of IL-12 in mouse skin: SSL-induced prevention models; for PGE2 levels in the skin: SSL-exposed skin
From the text: Exposure to UV radiation suppresses the immune response and UV-induced immune suppression is a major risk factor for skin cancer. In particular, UV exposure induces the production of Th2-associated cytokines and interferes with antigen presentation to Th1 cells producing IFN-γ. To determine whether rocuronium bromide or betamethasone 17-valerate affects the immune system response, the level of immune system markers, including interferon-γ (IFN-γ), interleukin-12 (IL-12) and prostaglandin E2 (PGE2), in mouse serum and the T-cell markers, CD3 and CD4, were examined. CD3 is associated with the T-cell receptor (TCR) and is essential in signal transduction in T cells following TCR activation. Tumor microenvironment-mediated down-regulation of TCR-associated signaling leads to the inhibition of T cell function and antitumor immunity in the tumor-bearing host. Very few T cells are observed in the epidermis and dermis of solar UV-induced SCCs.
SSL-induced immunosuppressive responses are associated with production of Th2-related cytokines (IL-10) and disturbance of antigen presentation to Th1 cells producing IFN-γ. Therefore, SSL-induced immunosuppression could be prevented by the Th1 cytokine, IFN-γ. An enzyme-linked immunosorbent assay (ELISA) was performed to examine IFN-γ levels in mouse serum. FIG. 25A is a chart comparing the effect of rocuronium bromide treatment on enhancement of IFN-γ production by immune cells in an early-stage SSL-induced prevention model. IL-12 is an immunoregulatory cytokine to reverse UV-induced DNA damage and immunosuppression, and also regulates the function and development of Th1 type cells by stimulating IFN-γ production. Furthermore, treatment with recombinant IL-12 reversed the UV-induced immunosuppression. Additionally, PGE2 plays a key role as an activator of UV-induced immunosuppression through its down-regulation of the levels of IL-12. Thus, the effects of PRPK inhibitors on SSL-induced changes on the immunoregulatory cytokines, IL-12 and PGE2, were investigated.

| SMILES | sUV-induced increase in PRPK expression [1] | sUV-induced increase in epidermal thickness [1] | phosphorylation of PRPK in sUV-treated mouse skin [1] | sUV-induced phosphorylation on increasing the concentration [1] | SSL-induced phosphorylation of PRPK (PRPK) | T cell infiltrates in mouse skin (IFN-γ, IL-12 and PGE2) | production of IFN-γ in mouse serum (IFN-γ, IL-12 and PGE2) | PGE2 levels in the skin (IFN-γ, IL-12 and PGE2) | production of IL-12 in mouse serum (IFN-γ, IL-12 and PGE2) | production of IL-12 in mouse skin (IFN-γ, IL-12 and PGE2) | other results |
| --- | --- | --- | --- | --- | --- | --- | --- | --- | --- | --- | --- |
| C=CC[N+]1([C@H]2C[C@H]3[C@@H]4CC[C@H]5C[C@H](O)[C@@H](N6CCOCC6)C[C@]5(C)[C@H]4CC[C@]3(C)[C@H]2OC(C)=O)CCCC1 [rocuronium bromide] | attenuated | attenuated | decreased | further reduced | inhibited | dense T cell infiltrates | increased | decreased | increased | increased | time of peak plasma levels post application ([2]; 1.0 mg RB in 100 μl cream topically): ≤ 15 min; ng/ml RB (plasma, single mouse) ([2]; 0.25 h post-dose, 1.0 mg RB in 100 μl cream topically): 3058 ng/mL and 18 ng/mL and 210 ng/mL; ng/ml RB (plasma, single mouse) ([2]; 0.5 h post-dose, 1.0 mg RB in 100 μl cream topically): 123 ng/mL and 36 ng/mL and 73 ng/mL; ng/ml RB (plasma, single mouse) ([2]; 1 h post-dose, 1.0 mg RB in 100 μl cream topically): 7 ng/mL and 25 ng/mL and 48 ng/mL; ng/ml RB (plasma, single mouse) ([2]; 2 h post-dose, 1.0 mg RB in 100 μl cream topically, BDL = below detection limit (~2 ng/ml)): 15 ng/mL; ng/ml RB (plasma, single mouse) ([2]; 6 h post-dose, 1.0 mg RB in 100 μl cream topically, BDL = below detection limit (~2 ng/ml)): 8 ng/mL; concentration at 0.25 h ([2]; SKH1-Hrhr hairless, mouse, plasma, topical, 1 mg, 0.25 h post-dose, 3 mice): 1100 ng/mL; concentration at 0.5 h ([2]; SKH1-Hrhr hairless, mouse, plasma, topical, 1 mg, 0.5 h post-dose, 3 mice): 77.3 ng/mL; concentration at 1 h ([2]; SKH1-Hrhr hairless, mouse, plasma, topical, 1 mg, 1 h post-dose, 3 mice): 26.7 ng/mL; concentration at 2 h ([2]; SKH1-Hrhr hairless, mouse, plasma, topical, 1 mg, 2 h post-dose, 1.0 mg RB in 100 μl cream topically, BDL = below detection limit (~2 ng/ml), read-out: ng/ml RB (plasma, single mouse)): 11 ng/mL; concentration at 2 h ([2]; SKH1-Hrhr hairless, mouse, plasma, topical, 1 mg, 2 h post-dose, 3 mice, read-out: MEAN ng/ml RB (plasma)): 8.7 ng/mL; concentration at 6 h ([2]; SKH1-Hrhr hairless, mouse, plasma, topical, 1 mg, 6 h post-dose, 1.0 mg RB in 100 μl cream topically, BDL = below detection limit (~2 ng/ml), read-out: ng/ml RB (plasma, single mouse)): 7 ng/mL; concentration at 6 h ([2]; SKH1-Hrhr hairless, mouse, plasma, topical, 1 mg, 6 h post-dose, 3 mice, read-out: MEAN ng/ml RB (plasma)): 5 ng/mL; concentration at 24 h ([2]; SKH1-Hrhr hairless, mouse, plasma, topical, 1 mg, 1.0 mg RB in 100 μl cream topically, BDL = below detection limit (~2 ng/ml), read-out: ng/ml RB (plasma, single mouse)): 14 ng/mL; concentration at 24 h ([2]; SKH1-Hrhr hairless, mouse, plasma, topical, 1 mg, 3 mice, read-out: MEAN ng/ml RB (plasma)): 4.7 ng/mL; time at which RB in plasma approaches baseline levels for the assay ([2]; post-dose, 1.0 mg RB in 100 μl cream topically): approximately 6 hours |
| CCCCC(=O)O[C@]1(C(=O)CO)[C@@H](C)C[C@H]2[C@@H]3CCC4=CC(=O)C=C[C@]4(C)[C@@]3(F)[C@@H](O)C[C@@]21C [betamethasone 17-valerate] | attenuated | attenuated | decreased | further reduced | inhibited | dense T cell infiltrates | increased | decreased | increased | increased |  |
